Results: patent publication US7728012B2, “Carboxamide compounds and their use as calpain inhibitors” (Abbott GmbH & Co. KG, priority 2006, dated 2010)

Key:
Type in all cases: biochemical
[1] = target: T1, calpain-I isolated from human erythrocytes (Homo sapiens, UniProt P07384); test: Calpain I kinetic fluorescence enzyme inhibition assay; details: apparent Ki from IC50 by Cheng-Prussoff; average of 2 to 4 dose-effect plots
T1 construct: calpain-I—isolated from human erythrocytes; purchased Calbiochem 208713; host or cells: human erythrocytes (tissue isolate)
T1 sequence (P07384 1-714): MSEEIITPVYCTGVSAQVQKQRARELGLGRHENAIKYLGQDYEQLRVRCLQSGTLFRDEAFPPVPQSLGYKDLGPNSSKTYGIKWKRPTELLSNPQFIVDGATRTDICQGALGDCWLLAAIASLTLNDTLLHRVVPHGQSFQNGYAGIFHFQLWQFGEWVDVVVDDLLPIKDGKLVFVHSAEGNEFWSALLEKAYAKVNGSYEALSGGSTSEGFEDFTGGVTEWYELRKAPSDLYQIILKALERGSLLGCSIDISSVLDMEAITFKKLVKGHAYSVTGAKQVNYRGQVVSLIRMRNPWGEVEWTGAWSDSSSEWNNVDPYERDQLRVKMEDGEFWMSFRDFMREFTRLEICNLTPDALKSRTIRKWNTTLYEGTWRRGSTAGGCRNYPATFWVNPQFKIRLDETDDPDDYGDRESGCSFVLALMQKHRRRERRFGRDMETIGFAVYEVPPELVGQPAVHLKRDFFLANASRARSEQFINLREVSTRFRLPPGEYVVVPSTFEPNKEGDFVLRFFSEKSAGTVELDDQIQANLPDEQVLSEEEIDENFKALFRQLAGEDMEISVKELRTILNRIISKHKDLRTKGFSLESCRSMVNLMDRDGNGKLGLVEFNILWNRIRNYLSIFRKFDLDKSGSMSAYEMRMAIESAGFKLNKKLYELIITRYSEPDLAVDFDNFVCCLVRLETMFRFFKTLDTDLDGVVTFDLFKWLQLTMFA
T1 sequence (P04632 1-268 partner): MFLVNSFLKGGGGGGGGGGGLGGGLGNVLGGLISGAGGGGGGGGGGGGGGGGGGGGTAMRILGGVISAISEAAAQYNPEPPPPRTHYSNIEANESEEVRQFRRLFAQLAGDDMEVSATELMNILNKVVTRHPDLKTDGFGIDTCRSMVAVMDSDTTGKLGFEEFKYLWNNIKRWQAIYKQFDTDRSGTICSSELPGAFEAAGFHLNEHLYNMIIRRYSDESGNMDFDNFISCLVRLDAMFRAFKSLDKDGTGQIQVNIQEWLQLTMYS

[2] = target: T2, cathepsin K activated from recombinant human procathepsin K (Homo sapiens, UniProt P43235); test: Cathepsin K kinetic fluorescence enzyme inhibition assay; details: selectivity ratio versus calpain I
T2 construct: purchased Calbiochem 342001; host or cells: E. coli
T2 sequence (P43235 115-329): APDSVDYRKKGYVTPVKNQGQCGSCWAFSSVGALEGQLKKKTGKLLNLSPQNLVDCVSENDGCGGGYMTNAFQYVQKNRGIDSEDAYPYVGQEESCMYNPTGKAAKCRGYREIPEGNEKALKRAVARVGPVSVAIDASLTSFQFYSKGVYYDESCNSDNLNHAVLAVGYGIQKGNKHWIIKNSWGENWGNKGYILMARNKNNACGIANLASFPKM
Experimental: (§1) The following solutions and buffers were employed: • HBS (for 40 ml): 800 μl M HEPES; 2.16 ml 100 mM KCl; 4.8 ml 1M NaCl; 3.59 ml 5% glucose; 60 μl μM MgSO4; 400 μl 100 mM Na pyruvate, 28.19 ml water; pH 7.2-7.5. • lysis buffer (for 20 ml): 400 μl M Tris pH 8.2; 2.74 ml 1M NaCl; 520 μl 0.5M EDTA; 2 ml 10% triton X-100; 0.8 ml (=1:25) CompletePlus (1 tablet/2 ml H2O); 200 μl 100 mM Pefabloc; 13.34 ml water, pH 8.2. • TBST (10×) (for 1 l): 100 mM Tris (12.1 g); 1.5M NaCl (87 g); 1% Tween 20 (10 g), adjusted to pH 8. I Enzyme Inhibition In Vitro: • Testing for blockade of the corresponding enzymic activities was carried out by means of kinetic fluorescence assays (excitation 390 nm, emission 460 nm). • Apparent Ki values were calculated from the experimentally determined IC50 values by the Cheng-Prussoff relation assuming a reversible competitive enzyme inhibition. The Km values of the substrates used under the assay conditions indicated above were: 90 μM (Z-Phe-Arg-AMC, cathepsin B), 10 μM (Z-Gly-Pro-Arg-AMC, cathepsin K), 2 μM (Z-Phe-Arg-AMC, cathepsin L), and 30 μM (Z-Val-Val-Arg-AMC, cathepsin S). • The indicated Ki values are averages of the inhibition constants calculated on the basis of 2 to 4 independent dose-effect plots.
(§2) The following assays were used: • 1. Calpain I: • 20 nM calpain-I—isolated from human erythrocytes (Calbiochem #208713), 100 μM Suc-Leu-Tyr-AMC (Bachem #1-1355) as substrate in buffer with 62 mM imidazole, 0.3 mM CaCl2, 0.10% CHAPS, 0.05% BSA, 1 mM DTT at pH 7.3 and room temperature. • 2. Cathepsin B: • 0.25 nM cathepsin B—isolated from human liver (Calbiochem #219362), 100 μM Z-Phe-Arg-AMC (Bachem #I-1160) as substrate 50 mM MES, 2 mM EDTA, 0.05% Brij 35, 2.5 mM L-cysteine, pH 6.0, room temperature. • 3. Cathepsin K: • 3 nM cathepsin K—activated from recombinant human procathepsin K from E. coli (Calbiochem #342001), 10 μM Z-Gly-Pro-Arg-AMC (Biomol #P-142) as substrate in 50 mM MES, 2 mM EDTA, 0.05% Brij 35, 2.5 mM L-cysteine, pH 6.0, room temperature. • 4. Cathepsin L: • 1 nM cathepsin L—isolated from human liver (Calbiochem #219402), 2 μM Z-Phe-Arg-AMC (Bachem #1-1160) as substrate in 50 mM MES, 2 mM EDTA, 0.05% Brij 35, 2.5 mM L-cysteine, pH 6.0, room temperature. • 5. Cathepsin S: • 0.5 nM recombinant human cathepsin S from E. coli (Calbiochem #219343), 20 μM Z-Val-Val-Arg-AMC (Bachem #1-1540) as substrate in 50 mM MES, 2 mM EDTA, 0.05% Brij 35, 2.5 mM L-cysteine, pH 6.0, room temperature. • The results of the in vitro determination are indicated in Table 1. The following abbreviations are used in Table 1: • The “Calpain activity” column, ++ stands for a calpain Ki (Ki(calpain)) of ≦40 nM and + means: 40 nM<Ki(Calpain)≦100 nM. • The “Sel. cat. B” column indicates the Ki(cathepsin B)/Ki(calpain) ratio. In this connection, ++ means a Ki(cathepsin B)/Ki(calpain) ratio of ≧30 and + means 10≦Ki(cathepsin B)/Ki(calpain)<30. • The “Sel. cat. K” column indicates the Ki(cathepsin K)/Ki(calpain) ratio. In this connection, ++ means a Ki(cathepsin K)/Ki(calpain) ratio of ≧30 and + means 10≦Ki(cathepsin K)/Ki(calpain)<30. • The “Sel. cat. L” column indicates the Ki(cathepsin L)/Ki(calpain) ratio. In this connection, ++ means a Ki(cathepsin L)/Ki(calpain) ratio of ≧50 and + means 30≦Ki(cathepsin L)/Ki(calpain)<50. • The “Sel. cat. S” column indicates the Ki(cathepsin S)/Ki(calpain) ratio. In this connection, ++ means a Ki(cathepsin S)/Ki(calpain) ratio of ≧100 and + means 50≦Ki(cathepsin S)/Ki(calpain)<100.

[3] = target: T3, cathepsin L isolated from human liver (Homo sapiens, UniProt P07711); test: Cathepsin L kinetic fluorescence enzyme inhibition assay; details: selectivity ratio versus calpain I
T3 construct: cathepsin L—isolated from human liver; purchased Calbiochem 219402; host or cells: human liver (tissue isolate)
T3 sequence (P07711 114-333): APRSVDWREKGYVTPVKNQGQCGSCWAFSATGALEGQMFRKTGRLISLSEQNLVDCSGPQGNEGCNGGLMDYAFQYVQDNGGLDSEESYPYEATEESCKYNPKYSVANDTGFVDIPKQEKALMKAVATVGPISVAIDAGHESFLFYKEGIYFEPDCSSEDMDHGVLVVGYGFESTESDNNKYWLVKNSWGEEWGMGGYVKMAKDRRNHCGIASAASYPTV
Outline: (§3)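 Kinetic fluorescence (ex 390/em 460 nm) at room temperature in 50 mM MES, 2 mM EDTA, 0.05% Brij 35, 2.5 mM L-cysteine, pH 6.0. Cathepsin B (liver, 0.25 nM) with 100 μM Z-Phe-Arg-AMC; cathepsin L (liver, 1 nM) with 2 μM Z-Phe-Arg-AMC; recombinant E. coli cathepsin S (0.5 nM) with 20 μM Z-Val-Val-Arg-AMC. Ki via Cheng-Prusoff.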

[4] = target: T4, recombinant human cathepsin S (Homo sapiens, UniProt P25774); test: Cathepsin S kinetic fluorescence enzyme inhibition assay; details: selectivity ratio versus calpain I
T4 construct: purchased Calbiochem 219343; host or cells: E. coli
T4 sequence (P25774 115-331): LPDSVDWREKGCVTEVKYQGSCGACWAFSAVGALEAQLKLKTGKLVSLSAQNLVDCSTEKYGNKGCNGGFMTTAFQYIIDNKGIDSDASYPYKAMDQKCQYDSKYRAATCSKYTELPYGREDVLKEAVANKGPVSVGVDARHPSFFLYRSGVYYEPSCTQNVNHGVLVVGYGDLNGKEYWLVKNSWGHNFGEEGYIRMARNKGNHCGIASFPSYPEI
Outline: as §3

[5] = target: T5, cathepsin B isolated from human liver (Homo sapiens, UniProt P07858); test: Cathepsin B kinetic fluorescence enzyme inhibition assay; details: selectivity ratio versus calpain I
T5 construct: cathepsin B—isolated from human liver; purchased Calbiochem 219362; host or cells: human liver (tissue isolate)
Experimental: as §1, §2

Row | Compound | Ki [1] | Sel cat. K (Ki(cathepsin K)/Ki(calpain) ratio) [2] | Sel cat. L (Ki(cathepsin L)/Ki(calpain) ratio) [3] | Sel cat. S (Ki(cathepsin S)/Ki(calpain) ratio) [4] | Sel cat. B (Ki(cathepsin B)/Ki(calpain) ratio) [5]
1 | Cl.NC(=O)C(=O)C(Cc1ccccc1)NC(=O)c1cccnc1-n1ccc(-c2ccc(N3CCOCC3)cc2)n1 (centres unmarked) [Example 29, N-(3-Amino-1-benzyl-2,3-dioxopropyl)-2-[3-(4-morpholin-4-ylphenyl)-1H-pyrazol-1-yl]nicotinamide hydrochloride] | ≤ 40 nM | + (10≦Ki(cathepsin K)/Ki(calpain)<30) | ++ (Ki(cathepsin L)/Ki(calpain) ratio of ≧50) | ++ (Ki(cathepsin S)/Ki(calpain) ratio of ≧100) | –
2 | NC(=O)C(=O)C(CC1CCCCC1)NC(=O)c1cccnc1-n1ccc(-c2ccccc2)n1 (centres unmarked) [Example 66, N-[3-Amino-1-(cyclohexylmethyl)-2,3-dioxopropyl]-2-(3-phenyl-1H-pyrazol-1-yl)nicotinamide] | ≤ 40 nM | + (10≦Ki(cathepsin K)/Ki(calpain)<30) | + (30≦Ki(cathepsin L)/Ki(calpain)<50) | ++ (Ki(cathepsin S)/Ki(calpain) ratio of ≧100) | –
3 | CN1CCN(c2ccc(-c3ccn(-c4ncccc4C(=O)NC(Cc4ccccc4)C(=O)C(N)=O)n3)cc2)CC1 (centres unmarked) [Example 68, N-(3-Amino-1-benzyl-2,3-dioxopropyl)-2-{3-[4-(4-methylpiperazin-1-yl)phenyl]-1H-pyrazol-1-yl}nicotinamide] | 40 to 100 nM | + (10≦Ki(cathepsin K)/Ki(calpain)<30) | – | ++ (Ki(cathepsin S)/Ki(calpain) ratio of ≧100) | –
4 | NC(=O)C(=O)C(Cc1ccccc1)NC(=O)c1cccnc1-n1ccc(-c2ccc3c(c2)CCO3)n1 (centres unmarked) [Example 75, N-(3-Amino-1-benzyl-2,3-dioxopropyl)-2-[3-(2,3-dihydrobenzo[b]furan-5-yl)-1H-pyrazol-1-yl]nicotinamide] | 40 to 100 nM | + (10≦Ki(cathepsin K)/Ki(calpain)<30) | ++ (Ki(cathepsin L)/Ki(calpain) ratio of ≧50) | ++ (Ki(cathepsin S)/Ki(calpain) ratio of ≧100) | –
5 | CC(C)c1ccc2c(c1)-c1nn(-c3ncccc3C(=O)NC(Cc3ccccc3)C(=O)C(N)=O)cc1CO2 (centres unmarked) [Example 144, N-[3-Amino-2,3-dioxo-1-(phenylmethyl)propyl]-2-[8-(1-methylethyl)chromeno[4,3-c]pyrazol-2(4H)-yl]pyridine-3-carboxamide] | ≤ 40 nM | – | ++ (Ki(cathepsin L)/Ki(calpain) ratio of ≧50) | ++ (Ki(cathepsin S)/Ki(calpain) ratio of ≧100) | + (10≦Ki(cathepsin B)/Ki(calpain)<30)
6 | N#Cc1cnc(-n2ccc(-c3ccccc3F)n2)c(C(=O)NC(Cc2ccccc2)C(=O)C(N)=O)c1 (centres unmarked) [Example 188, N-[3-Amino-2,3-dioxo-1-(phenylmethyl)propyl]-5-cyano-2-[3-(2-fluorophenyl)-1H-pyrazol-1-yl]pyridine-3-carboxamide] | 40 to 100 nM | ++ (Ki(cathepsin K)/Ki(calpain) ratio of ≧30) | ++ (Ki(cathepsin L)/Ki(calpain) ratio of ≧50) | – | –
7 | NC(=O)C(=O)C(Cc1ccccc1)NC(=O)c1cccnc1-n1ccc(C2CCCCC2)n1 (centres unmarked) [Example 192, N-[3-Amino-2,3-dioxo-1-(phenylmethyl)propyl]-2-(3-cyclohexyl-1H-pyrazol-1-yl)pyridine-3-carboxamide] | 40 to 100 nM | + (10≦Ki(cathepsin K)/Ki(calpain)<30) | ++ (Ki(cathepsin L)/Ki(calpain) ratio of ≧50) | ++ (Ki(cathepsin S)/Ki(calpain) ratio of ≧100) | –
